This is an account of results in patent publication US20020069423A1 (priority 2000, published 2002).

Test [1] addresses PrP^ac (Mus musculus, UniProt P04925). Particulars: cell culture; not tested in animal models; cited from earlier work.
The subject of test [2] is untransfected bovine fetal fibroblasts (BFF cells). The format is cell-based.
Test [3] addresses PrP^ac (Mesocricetus auratus, UniProt P04273). The conditions noted are these: scrapie-infected hamsters, controlled study; cited from earlier work.

Sequence of PrP^ac (Mus musculus, UniProt P04925) (P04925 23-230 limits assumed): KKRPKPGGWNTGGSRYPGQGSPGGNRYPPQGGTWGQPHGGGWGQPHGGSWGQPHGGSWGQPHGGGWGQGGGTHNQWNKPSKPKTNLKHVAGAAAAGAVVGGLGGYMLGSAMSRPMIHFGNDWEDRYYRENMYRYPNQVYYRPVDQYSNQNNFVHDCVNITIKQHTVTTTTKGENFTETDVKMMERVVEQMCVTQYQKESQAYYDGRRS
Sequence of PrP^ac (Mesocricetus auratus, UniProt P04273) (P04273 23-231 limits assumed): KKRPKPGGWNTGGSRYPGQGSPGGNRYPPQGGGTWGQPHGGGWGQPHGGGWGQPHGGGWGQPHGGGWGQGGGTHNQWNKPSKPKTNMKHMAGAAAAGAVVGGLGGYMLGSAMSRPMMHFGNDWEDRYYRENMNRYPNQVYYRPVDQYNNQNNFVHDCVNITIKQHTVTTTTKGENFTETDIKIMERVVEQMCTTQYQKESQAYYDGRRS

For `Nc1c(/N=N/c2ccc(-c3ccc(/N=N/c4cc(S(=O)(=O)O)c5ccccc5c4N)cc3)cc2)cc(S(=O)(=O)O)c2ccccc12` [Congo red], on PrP^ac [1], the “effect on accumulation of PrP^ac” value is recorded as “prevent accumulation of PrP^ac”.

Consider `CN[C@@H]1[C@@H](O)[C@@H](O[C@@H]2[C@@H](O)[C@H](O[C@H]3O[C@H]([C@@H](C)O)[C@@H](O)[C@H](O)[C@H]3N)[C@@H](N)C[C@H]2N)OC[C@]1(C)O` [G418, geneticin (G418)], for which, in test [2], the “concentration sufficient to kill non-neomycin containing BFF cells but allow rapid growth of BFF cells with transfected neomycin gene” value was found to be 400 µg/mL, the “concentration that will sufficiently kill non-neomycin containing BEF cells but allow proliferation of cells with transfected neomycin gene” value turned out to be 400 µg/mL, the “lag time in drug selection” value is given as “approximately 3 days” and the “time of drug selection until BFF cells were dead” value is reported as at most 3 days.

For the compound `C[C@@H]1[C@H](O)[C@@H](C)/C=C/C=C/C=C/C=C/C=C/C=C/C=C/[C@H](O[C@@H]2O[C@H](C)[C@@H](O)[C@H](N)[C@@H]2O)C[C@@H]2O[C@](O)(C[C@@H](O)C[C@@H](O)[C@H](O)CC[C@@H](O)C[C@@H](O)CC(=O)O[C@H]1C)C[C@H](O)[C@H]2C(=O)O` [amphotericin B], the “effect on accumulation of PrP^ac” value on PrP^ac [3] is “delayed the accumulation of PrP^ac”.

As for pentosan polysulfate, at PrP^ac [1], the “effect on accumulation of PrP^ac” value is on record as “prevent accumulation of PrP^ac”.
